Target: T1, His tagged full-length PTP1B protein (Homo sapiens, UniProt P18031)
T1 construct: made in house
T1 sequence (P18031 with tags, fused parts or gaps): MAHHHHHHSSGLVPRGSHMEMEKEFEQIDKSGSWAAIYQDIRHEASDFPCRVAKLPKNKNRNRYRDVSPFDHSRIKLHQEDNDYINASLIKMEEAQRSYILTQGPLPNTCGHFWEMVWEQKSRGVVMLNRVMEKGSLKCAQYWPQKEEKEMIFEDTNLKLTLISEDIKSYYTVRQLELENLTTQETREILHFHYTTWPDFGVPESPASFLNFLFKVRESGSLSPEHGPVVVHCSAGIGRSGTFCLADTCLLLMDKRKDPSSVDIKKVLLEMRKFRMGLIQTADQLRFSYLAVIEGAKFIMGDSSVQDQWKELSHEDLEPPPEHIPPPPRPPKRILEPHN
Experiment: Mobility Shift Assay (MSA) used to determine potency of PTP1B inhibitors
Format: biochemical
Conditions: Table 2
Method: The enzymatic assay used to determine activity is a mobility shift assay using a LabChip EZ Reader by Caliper Life Sciences. The enzymatic reaction was carried out in assay buffer (50 mM HEPES pH 7.5, 1 mM EGTA, 10 mM EDTA, 0.01% Tween® 20, and 2 mM DTT). […] The enzyme (at 0.5 nM) was incubated with compound for 10 minutes at room temperature. […] The % inhibition was then used to calculate the IC50 values.

| SMILES | IC50 [nM] |
| --- | --- |
| O=C1CN(c2c(O)cc3ccc(OCCF)cc3c2F)S(=O)(=O)N1 [Compound 198, 5-[1-fluoro-7-(2-fluoroethoxy)-3-hydroxynaphthalen-2-yl]-1λ^6,2,5-thiadiazolidine-1,1,3-trione] | 10 to 100 |
| CC(C)CCNc1ccc2cc(O)c(N3CC(=O)NS3(=O)=O)c(F)c2c1 [Compound 200, 5-{1-fluoro-3-hydroxy-7-[(3-methylbutyl)amino]naphthalen-2-yl}-1λ^6,2,5-thiadiazolidine-1,1,3-trione] | < 1 |
| CC(C)CNc1ccc2cc(O)c(N3CC(=O)NS3(=O)=O)c(F)c2c1 [Compound 201, 5-{1-fluoro-3-hydroxy-7-[(2-methylpropyl)amino]naphthalen-2-yl}-1λ^6,2,5-thiadiazolidine-1,1,3-trione] | 1 to 10 |
| O=C1CN(c2c(O)cc3ccc(NCC4CC4)cc3c2F)S(=O)(=O)N1 [Compound 202, 5-{7-[(cyclopropylmethyl)amino]-1-fluoro-3-hydroxynaphthalen-2-yl}-1λ^6,2,5-thiadiazolidine-1,1,3-trione] | 10 to 100 |
| N#CCOc1ccc2cc(O)c(N3CC(=O)NS3(=O)=O)c(F)c2c1 [Compound 203, {[8-fluoro-6-hydroxy-7-(1,1,4-trioxo-1λ^6,2,5-thiadiazolidin-2-yl)naphthalen-2-yl]oxy}acetonitrile] | > 100 |
| CC(C)CCOc1ccc2cc(O)c(N3CC(=O)NS3(=O)=O)c(F)c2c1 [Compound 204, 5-[1-fluoro-3-hydroxy-7-(3-methylbutoxy)naphthalen-2-yl]-1λ^6,2,5-thiadiazolidine-1,1,3-trione] | < 1 |
| COc1ccc2cc(O)c(N3CC(=O)NS3(=O)=O)c(F)c2c1F [Compound 205, 5-(1,8-difluoro-3-hydroxy-7-methoxynaphthalen-2-yl)-1λ^6,2,5-thiadiazolidine-1,1,3-trione] | 10 to 100 |
| O=C1CN(c2c(O)cc3ccc(C4CN(S(=O)(=O)C5CC5)C4)cc3c2F)S(=O)(=O)N1 [Compound 206, 5-{7-[1-(cyclopropanesulfonyl)azetidin-3-yl]-1-fluoro-3-hydroxynaphthalen-2-yl}-1λ^6,2,5-thiadiazolidine-1,1,3-trione] | 1 to 10 |
| O=C1CN(c2c(O)cc3ccc(C4CN(C(=O)C5CC5)C4)cc3c2F)S(=O)(=O)N1 [Compound 207, 5-{7-[1-(cyclopropanecarbonyl)azetidin-3-yl]-1-fluoro-3-hydroxynaphthalen-2-yl}-1λ^6,2,5-thiadiazolidine-1,1,3-trione] | 1 to 10 |
| N#C/C=C/c1ccc2cc(O)c(N3CC(=O)NS3(=O)=O)c(F)c2c1 [Compound 208, (2E)-3-[8-fluoro-6-hydroxy-7-(1,1,4-trioxo-1λ^6,2,5-thiadiazolidin-2-yl)naphthalen-2-yl]prop-2-enenitrile] | > 100 |
| O=C1CN(c2c(O)cc3ccc(CCC4CC4)cc3c2F)S(=O)(=O)N1 [Compound 209, 5-[7-(2-cyclopropylethyl)-1-fluoro-3-hydroxynaphthalen-2-yl]-1λ^6,2,5-thiadiazolidine-1,1,3-trione] | 10 to 100 |
| O=C1CN(c2c(O)cc3ccc(OCCC4CC4)cc3c2F)S(=O)(=O)N1 [Compound 211, 5-[7-(2-cyclopropylethoxy)-1-fluoro-3-hydroxynaphthalen-2-yl]-1λ^6,2,5-thiadiazolidine-1,1,3-trione] | < 1 |
| O=C1CN(c2c(O)cc3ccc(OCCOCC4CC4)cc3c2F)S(=O)(=O)N1 [Compound 212, 5-{7-[2-(cyclopropylmethoxy)ethoxy]-1-fluoro-3-hydroxynaphthalen-2-yl}-1λ^6,2,5-thiadiazolidine-1,1,3-trione] | 1 to 10 |
| O=C1CN(c2c(O)cc3ccc(OCCOC4CCC4)cc3c2F)S(=O)(=O)N1 [Compound 214, 5-{7-[2-(cyclobutyloxy)ethoxy]-1-fluoro-3-hydroxynaphthalen-2-yl}-1λ^6,2,5-thiadiazolidine-1,1,3-trione] | 1 to 10 |

Source: patent US20230019236A1, “PROTEIN TYROSINE PHOSPHATASE INHIBITORS AND METHODS OF USE THEREOF” (Calico Life Sciences LLC, priority 2019, published 2023)
